Results published in ChEMBL document CHEMBL4507321 (2021).
Activity calls are given as the source filed them. The rule behind the calls is not given here.

Key:
[1] = target: Alpha-1B adrenergic receptor (Homo sapiens) (UniProt P35368); settings: Compound concentration 10.0 uM
[2] = target: 5-hydroxytryptamine receptor 2C (Homo sapiens) (UniProt P28335); settings: Compound concentration 10.0 uM
[3] = target: T1, GABA-A receptor; anion channel (Rattus norvegicus) (UniProt O09028+P15431+P18506+P18508+P19969+P20236+P23574+P23576+P28471+P28473+P30191+P62813+P63079+P63138+Q91ZM7+Q9ES14); settings: Compound concentration 10.0 uM
[4] = target: T1, GABA-A receptor; anion channel (Rattus norvegicus); settings: Compound concentration 10.0 uM; remark: listed apart in the source
[5] = target: 5-hydroxytryptamine receptor 7 (Homo sapiens) (UniProt P34969); settings: Compound concentration 10.0 uM
[6] = target: 5-hydroxytryptamine receptor 2B (Homo sapiens) (UniProt P41595); settings: Compound concentration 10.0 uM
Rattus norvegicus = species: Rattus norvegicus; settings: Compound concentration 10.0 uM
[7] = target: Histamine H1 receptor (Homo sapiens) (UniProt P35367); settings: Compound concentration 10.0 uM
[8] = target: Alpha-2B adrenergic receptor (Homo sapiens) (UniProt P18089); settings: Compound concentration 10.0 uM
[9] = target: 5-hydroxytryptamine receptor 1E (Homo sapiens) (UniProt P28566); settings: Compound concentration 10.0 uM
[10] = target: Muscarinic acetylcholine receptor M1 (Homo sapiens) (UniProt P11229); settings: Compound concentration 10.0 uM
[11] = target: Beta-2 adrenergic receptor (Homo sapiens) (UniProt P07550); settings: Compound concentration 10.0 uM
[12] = target: Alpha-1A adrenergic receptor (Homo sapiens) (UniProt P35348); settings: Compound concentration 10.0 uM
[13] = target: Beta-1 adrenergic receptor (Homo sapiens) (UniProt P08588); settings: Compound concentration 10.0 uM
[14] = target: Muscarinic acetylcholine receptor M4 (Homo sapiens) (UniProt P08173); settings: Compound concentration 10.0 uM
[15] = target: D(1A) dopamine receptor (Homo sapiens) (UniProt P21728); settings: Compound concentration 10.0 uM
[16] = target: D(4) dopamine receptor (Homo sapiens) (UniProt P21917); settings: Compound concentration 10.0 uM
[17] = target: Beta-3 adrenergic receptor (Homo sapiens) (UniProt P13945); settings: Compound concentration 10.0 uM
EMRK1184 = test: Proliferation assay with EMRK1184 lymphoma cells; assay type: functional, cell-based; settings: Mus musculus
[18] = target: 5-hydroxytryptamine receptor 1D (Homo sapiens) (UniProt P28221); settings: Compound concentration 10.0 uM
[19] = target: Muscarinic acetylcholine receptor M5 (Homo sapiens) (UniProt P08912); settings: Compound concentration 10.0 uM
[20] = target: 5-hydroxytryptamine receptor 2A (Homo sapiens) (UniProt P28223); settings: Compound concentration 10.0 uM
[21] = target: Sigma non-opioid intracellular receptor 1 (Homo sapiens) (UniProt Q99720); settings: Compound concentration 10.0 uM
[22] = target: Muscarinic acetylcholine receptor M2 (Homo sapiens) (UniProt P08172); settings: Compound concentration 10.0 uM
[23] = target: 5-hydroxytryptamine receptor 1B (Homo sapiens) (UniProt P28222); settings: Compound concentration 10.0 uM
[24] = target: D(1B) dopamine receptor (Homo sapiens) (UniProt P21918); settings: Compound concentration 10.0 uM
[25] = target: 5-hydroxytryptamine receptor 3A (Homo sapiens) (UniProt P46098); settings: Compound concentration 10.0 uM
[26] = target: Mu-type opioid receptor (Homo sapiens) (UniProt P35372); settings: Compound concentration 10.0 uM
[27] = target: Alpha-2C adrenergic receptor (Homo sapiens) (UniProt P18825); settings: Compound concentration 10.0 uM
[28] = target: 5-hydroxytryptamine receptor 5A (Homo sapiens) (UniProt P47898); settings: Compound concentration 10.0 uM
[29] = target: D(2) dopamine receptor (Homo sapiens) (UniProt P14416); settings: Compound concentration 10.0 uM
[30] = target: D(3) dopamine receptor (Homo sapiens) (UniProt P35462); settings: Compound concentration 10.0 uM
[31] = target: Delta-type opioid receptor (Homo sapiens) (UniProt P41143); settings: Compound concentration 10.0 uM
[32] = target: Histamine H4 receptor (Homo sapiens) (UniProt Q9H3N8); settings: Compound concentration 10.0 uM
[33] = target: 5-hydroxytryptamine receptor 1A (Homo sapiens) (UniProt P08908); settings: Compound concentration 10.0 uM
[34] = target: Histamine H2 receptor (Homo sapiens) (UniProt P25021); settings: Compound concentration 10.0 uM
MEF = test: Cell growth of Fucci MEFs; assay type: functional, Mus musculus; settings: Assay publication PMID: 30069049; Compound concentration 1 uM
[35] = target: Sigma intracellular receptor 2 (Homo sapiens) (UniProt Q5BJF2); settings: Compound concentration 10.0 uM
[36] = target: Kappa-type opioid receptor (Homo sapiens) (UniProt P41145); settings: Compound concentration 10.0 uM
[37] = target: Alpha-1D adrenergic receptor (Homo sapiens) (UniProt P25100); settings: Compound concentration 10.0 uM
[38] = target: Methionine aminopeptidase 2 (Homo sapiens, UniProt P50579); test: Biochemical activity-MetAP2 using Co
[39] = target: Alpha-2A adrenergic receptor (Homo sapiens) (UniProt P08913); settings: Compound concentration 10.0 uM
[40] = target: T2, Sodium-dependent dopamine transporter (Homo sapiens, UniProt Q01959); settings: Compound concentration 10.0 uM
[41] = target: 5-hydroxytryptamine receptor 6 (Homo sapiens) (UniProt P50406); settings: Compound concentration 10.0 uM
[42] = target: Muscarinic acetylcholine receptor M3 (Homo sapiens) (UniProt P20309); settings: Compound concentration 10.0 uM
[43] = target: T2, Sodium-dependent dopamine transporter; test: GPCRScan assay: inhibition of DAT; parameters: radioligand conc. used [nm] 3.6 – 16.0, parental cells stable HEK
[44] = target: Histamine H3 receptor (Homo sapiens) (UniProt Q9Y5N1); settings: Compound concentration 10.0 uM
[45] = target: Alpha-2A adrenergic receptor (Homo sapiens, UniProt P08913); test: GPCRScan assay: inhibition of Alpha2A; parameters: radioligand conc. used [nm] 1.0 – 3.0, parental cells stable MDCK
[46] = target: Sodium-dependent serotonin transporter (Homo sapiens) (UniProt P31645); settings: Compound concentration 10.0 uM
[47] = target: Sodium-dependent noradrenaline transporter (Homo sapiens) (UniProt P23975); settings: Compound concentration 10.0 uM

T2 sequence (Q01959 whole entry): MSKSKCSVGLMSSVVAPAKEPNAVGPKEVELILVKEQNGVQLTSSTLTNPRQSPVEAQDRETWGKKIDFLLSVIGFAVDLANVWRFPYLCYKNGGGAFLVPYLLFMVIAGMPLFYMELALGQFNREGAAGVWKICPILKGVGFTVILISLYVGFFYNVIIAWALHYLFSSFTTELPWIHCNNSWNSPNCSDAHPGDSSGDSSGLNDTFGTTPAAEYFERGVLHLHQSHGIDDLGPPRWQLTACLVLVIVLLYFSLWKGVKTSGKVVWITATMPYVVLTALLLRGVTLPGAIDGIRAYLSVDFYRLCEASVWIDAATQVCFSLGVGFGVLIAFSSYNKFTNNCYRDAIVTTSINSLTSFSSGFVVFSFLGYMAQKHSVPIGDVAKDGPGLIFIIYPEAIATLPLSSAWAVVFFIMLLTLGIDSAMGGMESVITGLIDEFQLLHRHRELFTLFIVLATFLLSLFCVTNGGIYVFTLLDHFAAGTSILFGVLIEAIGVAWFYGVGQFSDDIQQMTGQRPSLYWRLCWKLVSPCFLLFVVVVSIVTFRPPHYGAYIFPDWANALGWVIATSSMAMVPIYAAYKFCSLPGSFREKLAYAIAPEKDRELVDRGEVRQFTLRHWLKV
5-hydroxytryptamine receptor 2B (Homo sapiens), sequence (P41595 whole entry): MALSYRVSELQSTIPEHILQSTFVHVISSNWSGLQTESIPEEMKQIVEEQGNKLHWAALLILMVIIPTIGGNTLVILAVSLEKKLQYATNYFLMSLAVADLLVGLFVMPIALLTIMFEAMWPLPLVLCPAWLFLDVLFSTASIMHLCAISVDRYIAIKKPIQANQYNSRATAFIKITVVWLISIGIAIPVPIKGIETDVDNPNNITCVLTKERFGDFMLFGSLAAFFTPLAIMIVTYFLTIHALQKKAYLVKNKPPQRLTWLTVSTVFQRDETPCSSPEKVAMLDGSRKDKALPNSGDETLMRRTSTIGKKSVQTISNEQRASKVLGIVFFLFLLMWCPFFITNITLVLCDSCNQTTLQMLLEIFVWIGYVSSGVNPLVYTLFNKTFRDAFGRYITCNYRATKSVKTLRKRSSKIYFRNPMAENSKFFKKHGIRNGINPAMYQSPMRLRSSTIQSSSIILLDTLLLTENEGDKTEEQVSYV
Sigma non-opioid intracellular receptor 1 (Homo sapiens), sequence (Q99720 whole entry): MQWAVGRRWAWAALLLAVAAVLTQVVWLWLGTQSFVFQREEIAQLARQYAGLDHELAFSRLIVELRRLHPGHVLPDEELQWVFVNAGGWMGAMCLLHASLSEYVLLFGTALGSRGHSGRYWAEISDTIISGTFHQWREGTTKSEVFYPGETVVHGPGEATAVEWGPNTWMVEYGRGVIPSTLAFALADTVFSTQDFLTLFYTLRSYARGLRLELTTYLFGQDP
Kappa-type opioid receptor (Homo sapiens), sequence (P41145 whole entry): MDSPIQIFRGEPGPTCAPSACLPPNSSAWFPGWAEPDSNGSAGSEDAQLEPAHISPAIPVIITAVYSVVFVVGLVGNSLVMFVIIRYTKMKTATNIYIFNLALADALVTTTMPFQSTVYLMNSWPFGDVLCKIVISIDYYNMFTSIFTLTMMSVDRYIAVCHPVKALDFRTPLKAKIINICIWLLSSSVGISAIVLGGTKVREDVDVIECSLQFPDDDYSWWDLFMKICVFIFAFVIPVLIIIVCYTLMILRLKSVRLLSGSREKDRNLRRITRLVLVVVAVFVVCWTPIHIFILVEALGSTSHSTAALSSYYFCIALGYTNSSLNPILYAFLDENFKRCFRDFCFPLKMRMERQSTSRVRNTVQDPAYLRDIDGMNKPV
D(4) dopamine receptor (Homo sapiens), sequence (P21917 whole entry): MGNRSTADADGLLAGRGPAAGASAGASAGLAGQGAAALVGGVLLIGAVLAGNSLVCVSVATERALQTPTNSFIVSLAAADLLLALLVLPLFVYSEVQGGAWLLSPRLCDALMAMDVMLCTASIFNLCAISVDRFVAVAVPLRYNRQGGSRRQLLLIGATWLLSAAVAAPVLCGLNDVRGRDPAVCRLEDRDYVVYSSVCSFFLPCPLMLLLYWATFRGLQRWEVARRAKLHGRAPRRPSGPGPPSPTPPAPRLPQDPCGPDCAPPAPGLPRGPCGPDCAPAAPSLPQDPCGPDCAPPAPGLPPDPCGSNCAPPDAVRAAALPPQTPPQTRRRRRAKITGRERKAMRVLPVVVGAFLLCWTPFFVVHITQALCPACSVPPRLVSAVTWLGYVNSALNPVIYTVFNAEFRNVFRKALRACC
Mu-type opioid receptor (Homo sapiens), sequence (P35372 whole entry): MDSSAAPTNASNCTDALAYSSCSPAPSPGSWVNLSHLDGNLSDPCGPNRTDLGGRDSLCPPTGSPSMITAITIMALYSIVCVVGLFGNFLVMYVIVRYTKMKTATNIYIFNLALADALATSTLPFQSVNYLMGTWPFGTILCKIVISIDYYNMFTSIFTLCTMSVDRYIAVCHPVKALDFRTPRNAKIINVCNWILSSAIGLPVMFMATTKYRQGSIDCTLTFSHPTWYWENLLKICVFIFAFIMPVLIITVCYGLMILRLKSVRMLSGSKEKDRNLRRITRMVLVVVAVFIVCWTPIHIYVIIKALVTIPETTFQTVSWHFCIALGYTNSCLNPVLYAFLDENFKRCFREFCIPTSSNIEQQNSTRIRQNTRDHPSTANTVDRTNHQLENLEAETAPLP
Muscarinic acetylcholine receptor M2 (Homo sapiens), sequence (P08172 whole entry): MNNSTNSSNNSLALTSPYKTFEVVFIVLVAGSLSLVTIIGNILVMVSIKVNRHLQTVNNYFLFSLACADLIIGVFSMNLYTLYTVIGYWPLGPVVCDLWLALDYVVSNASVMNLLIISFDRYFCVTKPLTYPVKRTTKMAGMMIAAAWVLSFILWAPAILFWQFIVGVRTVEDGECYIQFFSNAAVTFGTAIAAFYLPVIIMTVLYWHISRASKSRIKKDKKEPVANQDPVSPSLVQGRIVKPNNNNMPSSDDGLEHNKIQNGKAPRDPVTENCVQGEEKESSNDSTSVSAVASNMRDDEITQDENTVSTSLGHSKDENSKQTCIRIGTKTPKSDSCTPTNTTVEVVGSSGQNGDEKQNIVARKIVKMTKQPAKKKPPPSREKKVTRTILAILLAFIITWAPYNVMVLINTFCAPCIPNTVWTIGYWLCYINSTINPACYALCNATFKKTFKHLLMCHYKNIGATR
Alpha-2A adrenergic receptor, sequence (P08913 whole entry): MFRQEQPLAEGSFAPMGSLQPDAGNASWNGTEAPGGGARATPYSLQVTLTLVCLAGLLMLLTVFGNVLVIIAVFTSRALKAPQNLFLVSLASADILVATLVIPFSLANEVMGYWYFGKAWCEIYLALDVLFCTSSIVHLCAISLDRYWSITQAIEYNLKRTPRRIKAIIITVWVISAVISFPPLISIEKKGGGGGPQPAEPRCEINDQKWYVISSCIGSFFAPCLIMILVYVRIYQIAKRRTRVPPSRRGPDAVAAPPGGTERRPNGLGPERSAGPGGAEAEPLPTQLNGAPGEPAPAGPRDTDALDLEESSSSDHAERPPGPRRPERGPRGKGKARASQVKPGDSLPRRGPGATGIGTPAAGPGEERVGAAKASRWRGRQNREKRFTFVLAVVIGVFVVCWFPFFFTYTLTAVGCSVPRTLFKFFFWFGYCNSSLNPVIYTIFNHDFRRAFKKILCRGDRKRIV
Alpha-2B adrenergic receptor (Homo sapiens), sequence (P18089 whole entry): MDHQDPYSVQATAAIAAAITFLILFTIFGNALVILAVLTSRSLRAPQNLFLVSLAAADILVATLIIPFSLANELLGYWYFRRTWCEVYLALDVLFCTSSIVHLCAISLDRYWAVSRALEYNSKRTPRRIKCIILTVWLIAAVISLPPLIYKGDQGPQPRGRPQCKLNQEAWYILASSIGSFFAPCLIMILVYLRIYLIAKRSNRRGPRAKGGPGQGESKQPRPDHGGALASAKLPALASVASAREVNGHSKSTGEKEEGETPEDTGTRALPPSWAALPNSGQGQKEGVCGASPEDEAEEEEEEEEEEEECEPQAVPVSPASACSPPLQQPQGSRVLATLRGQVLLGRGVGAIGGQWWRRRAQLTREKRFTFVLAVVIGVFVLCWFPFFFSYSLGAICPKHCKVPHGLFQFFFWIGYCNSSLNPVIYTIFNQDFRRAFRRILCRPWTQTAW
Beta-1 adrenergic receptor (Homo sapiens), sequence (P08588 whole entry, looked up): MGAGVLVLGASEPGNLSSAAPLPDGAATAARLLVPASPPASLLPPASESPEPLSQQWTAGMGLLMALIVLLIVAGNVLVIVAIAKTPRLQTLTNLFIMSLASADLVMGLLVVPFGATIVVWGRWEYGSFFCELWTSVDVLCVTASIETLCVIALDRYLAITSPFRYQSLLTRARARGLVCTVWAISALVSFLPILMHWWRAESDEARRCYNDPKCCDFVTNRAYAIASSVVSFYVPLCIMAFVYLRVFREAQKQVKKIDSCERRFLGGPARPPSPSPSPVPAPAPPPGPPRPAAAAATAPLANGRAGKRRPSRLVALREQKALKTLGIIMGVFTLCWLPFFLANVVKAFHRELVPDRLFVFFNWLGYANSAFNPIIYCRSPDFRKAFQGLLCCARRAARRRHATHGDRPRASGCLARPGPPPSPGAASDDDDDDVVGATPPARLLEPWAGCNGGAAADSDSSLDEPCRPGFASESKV
5-hydroxytryptamine receptor 1A (Homo sapiens), sequence (P08908 whole entry): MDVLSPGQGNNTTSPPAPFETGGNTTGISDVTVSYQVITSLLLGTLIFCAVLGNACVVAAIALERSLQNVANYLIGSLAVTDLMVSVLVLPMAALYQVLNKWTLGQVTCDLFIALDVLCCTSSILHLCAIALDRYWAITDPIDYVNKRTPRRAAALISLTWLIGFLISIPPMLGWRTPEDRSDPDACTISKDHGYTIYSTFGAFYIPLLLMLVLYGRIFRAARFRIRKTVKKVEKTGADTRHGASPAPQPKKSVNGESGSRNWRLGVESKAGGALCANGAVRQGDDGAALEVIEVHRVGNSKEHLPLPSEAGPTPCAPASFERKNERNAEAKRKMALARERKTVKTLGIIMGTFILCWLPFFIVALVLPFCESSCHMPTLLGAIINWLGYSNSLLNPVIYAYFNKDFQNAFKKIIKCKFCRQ
Alpha-2A adrenergic receptor (Homo sapiens), sequence (P08913 whole entry): as the sequence (P08913 whole entry) above

O=C(NNS(=O)(=O)c1ccccc1F)c1cc(F)cc(-c2ccccn2)c1 [WM-1119]
inhibition [1]: 7.18%
inhibition [2]: 6.46%
inhibition [3]: 75.7%
inhibition [4]: 11.7%
inhibition [5]: -3.75%
inhibition [6]: 2.94%
inhibition (Rattus norvegicus): 47%
inhibition [7]: -8.33%
inhibition [8]: -3.78%
inhibition [9]: 13.8%
inhibition [10]: 0.14%
inhibition [11]: 13.2%
inhibition [12]: 9.59%
inhibition [13]: -0.13%
inhibition [14]: 20.4%
inhibition [15]: -3.67%
inhibition [16]: 23.8%
inhibition [17]: 16.3%
IC50 (EMRK1184): 0.25 µM (active)
inhibition [18]: -0.66%
inhibition [19]: -8.87%
inhibition [20]: -7.37%
inhibition [21]: 35.7%
inhibition [22]: 15.9%
inhibition [23]: 13.6%
inhibition [24]: 4.57%
inhibition [25]: 32.9%
inhibition [26]: 3.45%
inhibition [27]: 10.2%
inhibition [28]: -9.77%
inhibition [29]: 79.6%
inhibition [30]: 4.97%
inhibition [31]: 20.6%
inhibition [32]: -2.44%
inhibition [33]: 16%
inhibition [34]: 5.32%
Cell cycle effect (MEF): 0
inhibition [35]: 19.9%
inhibition [36]: 5.23%
inhibition [37]: 3.2%

O=C(NNS(=O)(=O)c1ccccc1)c1cc(-c2ccnnc2)ccc1F [WM-2474]
inhibition [1]: -3.44%
inhibition [2]: 7.81%
inhibition [3]: 34.6%
inhibition [4]: 4.55%
IC50 [38]: > 50 µM (not active)
inhibition [5]: -1.87%
inhibition [6]: 40.1%
inhibition (Rattus norvegicus): -3.6%
inhibition [7]: -2.04%
inhibition [8]: 3.07%
inhibition [9]: 13.1%
inhibition [10]: 43.3%
inhibition [39]: 68.5%
inhibition [11]: 10.4%
inhibition [12]: 18.6%
inhibition [13]: 11.2%
inhibition [15]: 8.58%
inhibition [16]: 9.83%
inhibition [40]: 80.2%
inhibition [41]: 2.65%
inhibition [20]: 11.8%
inhibition [21]: 19.1%
inhibition [22]: -5.57%
inhibition [42]: 13%
inhibition [23]: 11%
inhibition [24]: 5.79%
Ki [43]: > 10 µM
pKi [43]: < 5
inhibition [25]: 4.55%
inhibition [26]: 26.1%
inhibition [27]: -5.42%
inhibition [44]: 15.5%
Ki [45]: > 10 µM
pKi [45]: < 5
inhibition [28]: -0.06%
inhibition [29]: 14.7%
inhibition [30]: -8.61%
inhibition [31]: 7.99%
inhibition [46]: 6.15%
inhibition [33]: 23.1%
inhibition [34]: -5.93%
Cell cycle effect (MEF): 0
inhibition [35]: 40.1%
inhibition [36]: -5.1%
inhibition [47]: -2.4%
inhibition [37]: 17.4%
